Biological target: T1, BRD9-GFP (Homo sapiens, UniProt Q9H8M2)
T1 construct: CHYSEL (2A cis-acting hydrolase element) remnant after GFP; mCherry is split off as a separate protein (C); expressed in transfected cells; host or cells: HEK293A cells (Invitrogen R70507), lentiviral transduction with pLenti6-BRD9-GFP-CHYSEL-mCherry, blasticidin selection
T1 sequence (Q9H8M2 1-597): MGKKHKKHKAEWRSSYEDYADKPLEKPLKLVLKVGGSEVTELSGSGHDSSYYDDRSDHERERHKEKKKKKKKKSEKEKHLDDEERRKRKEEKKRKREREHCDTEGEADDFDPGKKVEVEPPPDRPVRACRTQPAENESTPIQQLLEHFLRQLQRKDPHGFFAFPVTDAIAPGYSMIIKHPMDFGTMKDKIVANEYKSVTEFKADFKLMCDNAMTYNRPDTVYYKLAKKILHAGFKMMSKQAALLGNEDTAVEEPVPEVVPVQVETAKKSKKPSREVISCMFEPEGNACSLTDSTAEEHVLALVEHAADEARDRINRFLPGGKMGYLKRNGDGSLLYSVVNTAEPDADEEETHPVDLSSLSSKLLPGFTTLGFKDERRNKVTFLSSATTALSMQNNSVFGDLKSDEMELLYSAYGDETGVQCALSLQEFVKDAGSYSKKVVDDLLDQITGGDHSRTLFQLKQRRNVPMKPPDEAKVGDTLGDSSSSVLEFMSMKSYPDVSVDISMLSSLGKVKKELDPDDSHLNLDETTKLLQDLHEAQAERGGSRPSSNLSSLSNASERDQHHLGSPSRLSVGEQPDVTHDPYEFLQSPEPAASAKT
Experiment: BRD9-GFP protein abundance flow cytometry assay in HEK293A cells
Format: cell-based
Settings: HEK293A-BRD9-GFP-CHYSEL-mCherry cells; for BRD9 Deg Amax %: 24 h, % protein remaining at the concentration at which maximum degradation is seen; for DC50: 24 h at 37° C., 10-point 1:3 dilution, concentration at which 50% maximal degradation was observed
How it was run: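 HEK293A cells stably express bicistronic BRD9-GFP-CHYSEL-mCherry and received 24 h treatment at 37° C with a 10-point, 3-fold dilution series from […], in 0.1% DMSO and duplicate. Median GFP/mCherry ratio of 5,000 single cells by flow cytometry, normalized to mCherry-only cells (0%) and DMSO (100%), gave DC50 and Amax (% protein remaining).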

| BRD9 Deg Amax % [%] | DC50 [nM] | Structure (SMILES) |
| --- | --- | --- |
| 23.20 | 21 | CCCCn1cc(-c2ccc(O[C@H]3CCN(CC4CCN(CCn5cccc(CN6CCC(=O)NC6=O)c5=O)CC4)C[C@@H]3F)cc2)c2ccncc2c1=O [Compound E28, 1-((1-(2-(4-(((3S,4S)-4-(4-(2-butyl-1-oxo-1,2-dihydro-2,7-naphthyridin-4-yl)phenoxy)-3-fluoropiperidin-1-yl)methyl)piperidin-1-yl)ethyl)-2-oxo-1,2-dihydropyridin-3-yl)methyl)dihydropyrimidine-2,4(1H,3H)-dione] |
| 19.48 | 1 | CCCCn1cc(-c2ccc(O[C@@H]3CCN(CC4CCN(C(=O)c5ccc(OC)c(N6CCC(=O)NC6=O)c5)CC4)C[C@H]3F)c(F)c2)c2ccncc2c1=O [Compound E29, 1-(5-(4-(((3R,4R)-4-(4-(2-butyl-1-oxo-1,2-dihydro-2,7-naphthyridin-4-yl)-2-fluorophenoxy)-3-fluoropiperidin-1-yl)methyl)piperidine-1-carbonyl)-2-methoxyphenyl)dihydropyrimidine-2,4(1H,3H)-dione] |
| 11.19 | 3 | Cn1cc(-c2cc(F)c(CN3CC[C@@H](OC4CCN(CCn5cccc(CN6CCC(=O)NC6=O)c5=O)CC4)[C@H](F)C3)c(F)c2)c2ccncc2c1=O [Compound E30, 1-((1-(2-(4-(((3R,4R)-1-(2,6-difluoro-4-(2-methyl-1-oxo-1,2-dihydro-2,7-naphthyridin-4-yl)benzyl)-3-fluoropiperidin-4-yl)oxy)piperidin-1-yl)ethyl)-2-oxo-1,2-dihydropyridin-3-yl)methyl)dihydro-pyrimidine-2,4(1H,3H)-dione] |
| 16.43 | 1 | CCCCn1cc(-c2ccc(O[C@H]3CCN(CC4CCN(C(=O)c5ccc(OC)c(N6CCC(=O)NC6=O)c5)CC4)C[C@@H]3F)cc2)c2ccncc2c1=O [Compound E31, 1-(5-(4-(((3S,4S)-4-(4-(2-butyl-1-oxo-1,2-dihydro-2,7-naphthyridin-4-yl)phenoxy)-3-fluoropiperidin-1-yl)methyl)piperidine-1-carbonyl)-2-meth-oxyphenyl)dihydro-pyrimidine-2,4(1H,3H)-dione] |
| 17.58 | 1 | CCCCn1cc(-c2ccc(O[C@H]3CCN(CC4CCN(C(=O)c5ccc(OC)c(N6CCC(=O)NC6=O)c5)CC4)C[C@@H]3F)c(OC)c2)c2ccncc2c1=O [Compound E32, 1-(5-(4-(((3S,4S)-4-(4-(2-Butyl-1-oxo-1,2-dihydro-2,7-naphthyridin-4-yl)-2-methoxyphenoxy)-3-fluoropiperidin-1-yl)methyl)piperidine-1-carbonyl)-2-methoxyphenyl)dihydropyrimidine-2,4(1H,3H)-dione] |
| 14.29 | 5 | CCCCn1cc(-c2cc(F)c(CN3CCC(OC4CCN(C(=O)c5ccc(OC)c(N6CCC(=O)NC6=O)c5)CC4)CC3)c(F)c2)c2ccncc2c1=O [Compound E33, 1-(5-(4-((1-(4-(2-butyl-1-oxo-1,2-dihydro-2,7-naphthyridin-4-yl)-2,6-difluorobenzyl)piperi-din-4-yl)oxy)piperi-dine-1-carbonyl)-2-methoxyphenyl)di-hydro-pyrimidine-2,4(1H,3H)-dione] |
| 13.08 | 2 | CCCCn1cc(-c2ccc(OC3CCN(CC4CCN(C(=O)c5ccc(OC)c(N6CCC(=O)NC6=O)c5)CC4)CC3)c(F)c2)c2ccncc2c1=O [Compound E34, 1-(5-(4-((4-(4-(2-butyl-1-oxo-1,2-dihydro-2,7-naphthyridin-4-yl)-2-fluorophenoxy)piperidin-1-yl)methyl)piperidine-1-carbonyl)-2-methoxyphenyl)dihydropyrimidine-2,4(1H,3H)-dione] |
| 15.90 | 6 | CCCCn1cc(-c2ccc(O[C@H]3CC[C@@H](OC4CCN(CCn5cccc(CN6CCC(=O)NC6=O)c5=O)CC4)CC3)cc2)c2ccncc2c1=O [Compound E35, 1-((1-(2-(4-(((cis)-4-(4-(2-butyl-1-oxo-1,2-dihydro-2,7-naphthyridin-4-yl)phenoxy)cyclohexyl)oxy)piperidin-1-yl)ethyl)-2-oxo-1,2-dihydropyridin-3-yl)methyl)dihydropyrimidine-2,4(1H,3H)-dione] |
| 12.80 | 6 | CCCCn1cc(-c2cc(OC)c(CN3CC[C@@H](OC4CCN(C(=O)c5ccc(OC)c(N6CCC(=O)NC6=O)c5)CC4)[C@H](F)C3)cc2OC)c2ccncc2c1=O [Compound E36, 1-(5-(4-(((3R,4R)-1-(4-(2-butyl-1-oxo-1,2-dihydro-2,7-naphthyridin-4-yl)-2,5-dimethoxybenzyl)-3-fluoropiperidin-4-yl)oxy)piperidine-1-carbonyl)-2-methoxyphenyl)dihydropyrimidine-2,4(1H,3H)-dione] |
| 13.77 | 9 | Cn1cc(-c2ccc(CN3CCC(OC4CCN(CCn5cccc(CN6CCC(=O)NC6=O)c5=O)CC4)CC3)cc2)c2ccncc2c1=O [Compound E37, 1-((1-(2-(4-((1-(4-(2-methyl-1-oxo-1,2-dihydro-2,7-naphthyridin-4-yl)benzyl)piperidin-4-yl)oxy)piperidin-1-yl)ethyl)-2-oxo-1,2-dihydropyridin-3-yl)methyl)dihydropyrimidine-2,4(1H,3H)-dione] |
| 14.60 | 4 | COc1cc(-c2cn(C)c(=O)c3cnccc23)c(OC)cc1CN1CC[C@@H](OC2CCN(CCn3cccc(CN4CCC(=O)NC4=O)c3=O)CC2)[C@H](F)C1 [Compound E39, 1-((1-(2-(4-(((3R,4R)-1-(2,5-Dimethoxy-4-(2-methyl-1-oxo-1,2-dihydro-2,7-naphthyridin-4-yl)benzyl)-3-fluoropiperidin-4-yl)oxy)piperidin-1-yl)ethyl)-2-oxo-1,2-dihydropyridin-3-yl)methyl)dihydropyrimidine-2,4(1H,3H)-dione] |
| 10.51 | 29 | CCCCCCn1cc(-c2cc(OC)c(CN3CCC(OC4CCN(C(=O)c5ccc(OC)c(N6CCC(=O)NC6=O)c5)CC4)CC3)c(OC)c2)c2ccncc2c1=O [Compound E40, 1-(5-(4-((1-(4-(2-Hexyl-1-oxo-1,2-dihydro-2,7-naphthyridin-4-yl)-2,6-dimethoxybenzyl)piperidin-4-yl)oxy)piperidine-1-carbonyl)-2-methoxyphenyl)dihydropyrimidine-2,4(1H,3H)-dione] |
| 17.34 | 4 | CCCCn1cc(-c2ccc(OC3CCN(CC4CCN(C(=O)c5ccc(OC)c(N6CCC(=O)NC6=O)c5)CC4)CC3)cc2)c2ccncc2c1=O [Compound E42, 1-(5-(4-((4-(4-(2-butyl-1-oxo-1,2-dihydro-2,7-naphthyridin-4-yl)phenoxy)piperidin-1-yl)methyl)piperidine-1-carbonyl)-2-methoxyphenyl)dihydropyrimidine-2,4(1H,3H)-dione] |
| 17.45 | 3 | CCCCn1cc(-c2ccc(OC3CCN(CC4CCN(C(=O)c5ccc(OC)c(N6CCC(=O)NC6=O)c5)CC4)CC3)c(Cl)c2)c2ccncc2c1=O [Compound E43, 1-(5-(4-((4-(4-(2-butyl-1-oxo-1,2-dihydro-2,7-naphthyridin-4-yl)-2-chlorophenoxy)piperidin-1-yl)methyl)piperidine-1-carbonyl)-2-methoxyphenyl)dihydropyrimidine-2,4(1H,3H)-dione] |
